Experimental data from patent US7494714B2, “Surfaces that resist the adsorption of biological species” (President & Fellows of Harvard College, priority 2000, dated 2009).

Tests used:
fibrinogen = target: T1, fibrinogen (Bos taurus, UniProt P02672+P02676+P12799); experiment: SPR adsorption of fibrinogen to SAMs / grafted polymer films; type: binding, bovine; conditions: for % Fiboff (percent decrease in adsorbed protein during 10 minute PBS wash) / dR/dton fibrinogen (maximum initial rate of adsorption) / % MLfib 3 min / % MLfib 30 min: mixed SAM —CONRR′/—CO2H; for % MLfib 3 min: 1 mg/mL fibrinogen flowed 3 min, relative to —CONH(CH2)10CH3/—CO2H SAM; for % MLfib 30 min: 1 mg/mL fibrinogen flowed 30 min; for % ML 30 min / dR/dt on / % ML 3 min: fibrinogen; for % ML 30 min / dR/dt on / % Fib off: single-component SAMs (a) and mixed SAMs (b); for % ML 3 min: single-component SAMs (a, RSH) and mixed SAMs (b, RNH2)
T1 sequence (P02672 20-615): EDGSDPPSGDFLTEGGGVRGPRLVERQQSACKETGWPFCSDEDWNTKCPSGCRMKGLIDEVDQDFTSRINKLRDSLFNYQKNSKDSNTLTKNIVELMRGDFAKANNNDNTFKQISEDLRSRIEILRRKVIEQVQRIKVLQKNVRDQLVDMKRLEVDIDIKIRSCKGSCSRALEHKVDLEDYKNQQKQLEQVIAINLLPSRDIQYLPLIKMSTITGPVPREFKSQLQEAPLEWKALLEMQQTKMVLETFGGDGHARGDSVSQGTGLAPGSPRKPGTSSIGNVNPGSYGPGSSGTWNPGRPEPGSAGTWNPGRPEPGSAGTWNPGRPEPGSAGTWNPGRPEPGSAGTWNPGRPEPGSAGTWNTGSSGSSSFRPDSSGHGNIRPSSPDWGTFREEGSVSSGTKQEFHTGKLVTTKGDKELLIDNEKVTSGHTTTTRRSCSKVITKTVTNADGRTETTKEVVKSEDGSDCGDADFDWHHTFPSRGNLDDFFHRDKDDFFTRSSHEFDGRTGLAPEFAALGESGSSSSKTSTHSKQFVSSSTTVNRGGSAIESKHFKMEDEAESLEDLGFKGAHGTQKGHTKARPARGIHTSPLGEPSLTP
T1 sequence (P02676 1-468): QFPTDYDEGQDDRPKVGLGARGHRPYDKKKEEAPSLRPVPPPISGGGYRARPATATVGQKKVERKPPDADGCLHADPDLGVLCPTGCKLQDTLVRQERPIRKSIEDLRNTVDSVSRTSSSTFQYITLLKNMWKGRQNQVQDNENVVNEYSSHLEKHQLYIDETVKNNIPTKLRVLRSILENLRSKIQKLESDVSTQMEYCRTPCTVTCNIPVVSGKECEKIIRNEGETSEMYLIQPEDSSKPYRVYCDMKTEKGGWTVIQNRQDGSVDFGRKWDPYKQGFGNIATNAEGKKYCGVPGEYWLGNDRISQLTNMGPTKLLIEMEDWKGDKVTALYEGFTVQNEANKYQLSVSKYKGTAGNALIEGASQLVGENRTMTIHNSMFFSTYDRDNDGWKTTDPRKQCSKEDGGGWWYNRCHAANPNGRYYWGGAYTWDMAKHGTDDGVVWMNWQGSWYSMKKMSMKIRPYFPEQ
T1 sequence (P12799 25-444): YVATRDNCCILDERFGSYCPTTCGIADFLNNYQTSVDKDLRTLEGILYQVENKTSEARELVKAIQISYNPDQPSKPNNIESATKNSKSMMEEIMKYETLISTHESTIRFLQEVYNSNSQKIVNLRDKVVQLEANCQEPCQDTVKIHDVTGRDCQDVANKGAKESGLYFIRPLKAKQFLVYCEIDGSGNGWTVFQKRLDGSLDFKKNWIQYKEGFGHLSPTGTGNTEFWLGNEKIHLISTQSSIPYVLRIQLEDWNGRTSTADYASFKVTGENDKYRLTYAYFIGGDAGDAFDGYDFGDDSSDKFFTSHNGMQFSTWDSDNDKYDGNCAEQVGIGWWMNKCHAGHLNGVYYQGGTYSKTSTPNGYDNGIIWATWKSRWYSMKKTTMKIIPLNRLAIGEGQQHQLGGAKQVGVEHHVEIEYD

lysozyme = lysozyme (Gallus gallus, UniProt P00698); experiment: SPR adsorption of lysozyme to SAMs / grafted polymer films; type: binding; conditions: for % Lysoff (percent decrease in adsorbed protein during 10 minute PBS wash) / dR/dton lysozyme (maximum initial rate of adsorption) / % MLlys 3 min / % MLlys 30 min: mixed SAM —CONRR′/—CO2H; for % MLlys 3 min: 1 mg/mL lysozyme flowed 3 min; for % MLlys 30 min: 1 mg/mL lysozyme flowed 30 min; for % ML 3 min / dR/dt on: lysozyme; for % ML 3 min / dR/dt on / % Lys off: single-component SAMs (a) and mixed SAMs (b)
Sequence of lysozyme (P00698 19-147): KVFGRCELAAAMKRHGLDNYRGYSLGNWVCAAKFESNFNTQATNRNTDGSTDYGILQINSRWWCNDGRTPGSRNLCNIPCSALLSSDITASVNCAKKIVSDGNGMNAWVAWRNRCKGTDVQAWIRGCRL

Structure (SMILES) | % Fiboff (percent decrease in adsorbed protein during 10 minute PBS wash) (fibrinogen) [%] | dR/dton fibrinogen (maximum initial rate of adsorption) (fibrinogen) [RU/sec] | % MLfib 3 min (fibrinogen) [%] | % MLfib 30 min (fibrinogen) [%] | % Lysoff (percent decrease in adsorbed protein during 10 minute PBS wash) (lysozyme) [%] | dR/dton lysozyme (maximum initial rate of adsorption) (lysozyme) [RU/sec] | % MLlys 3 min (lysozyme) [%] | % MLlys 30 min (lysozyme) [%] | % ML 30 min (fibrinogen) [%] | dR/dt on (fibrinogen) [RU/sec] | % ML 3 min (fibrinogen) [%] | % Fib off (fibrinogen) [%] | % ML 3 min (lysozyme; footnote b (30 minutes)) [%] | % ML 3 min (lysozyme) [%] | dR/dt on (lysozyme) [RU/sec] | % Lys off (lysozyme) [%]
OCCOCCN1CCNCC1 | 1.8 ± 0.1 | 54 ± 10 | 1.2 ± 0.1 | 3.7 ± 0.0 | 110 ± 5 | 20 ± 2 | 4.5 ± 0.0 | 27 ± 10 |  |  |  |  |  |  |  | 
CNCCNC | 7.5 ± 0.4 | 77 ± 30 | 4.4 ± 0.8 | 8.5 ± 0.0 | 110 ± 5 | 110 ± 60 | 4.3 ± 0.1 | 7.8 ± 0.0 |  |  |  |  |  |  |  | 
CC(=O)NCCN | 13 ± 1 | 50 ± 5 | 14 ± 1 | 40 ± 2 | 580 ± 20 | 530 ± 120 | 1.4 ± 0.0 | 5.4 ± 0.3 |  |  |  |  |  |  |  | 
CN(C)C(=O)CN | 19 ± 0.2 | 202 ± 80 | 18 ± 0.5 | 33 ± 0.5 | 350 ± 10 | 590 ± 270 | 7.2 ± 1 | 15 ± 1 |  |  |  |  |  |  |  | 
CNCC(=O)N(C)C | 28 ± 0.7 | 50 ± 23 | 1.0 ± 0.0 | 9.1 ± 0.3 | 740 ± 9 | 290 ± 130 | 0.2 ± 0.1 | 2.4 ± 0.3 |  |  |  |  |  |  |  | 
NCC1COCCOCCOCCOCCOCCO1 (centres unmarked) | 9.7 ± 0.5 | 320 ± 110 | 44 ± 0.9 | 59 ± 2.3 | 14 ± 1.3 | 75 ± 40 | 3.9 ± 0.3 | 9.6 ± 0.5 |  |  |  |  |  |  |  | 
C1COCCOCCOCCOCCOCCN1 | 9.6 ± 0.9 | 45 ± 20 | 3.8 ± 0.7 | 11 ± 0.3 | 72 ± 0.7 | 100 ± 50 | 2.1 ± 0.4 | 6.0 ± 0.5 |  |  |  |  |  |  |  | 
Nc1ccc(O[C@@H]2O[C@H](CO)[C@@H](O)[C@H](O)[C@H]2O)cc1 | 38 ± 0.8 | 1200 ± 270 | 51 ± 1.8 | 67 ± 0.9 | 78 ± 1.7 | 1200 ± 270 | 27 ± 3.3 | 83 ± 2.3 |  |  |  |  |  |  |  | 
N[C@H]1C(O)O[C@H](CO)[C@@H](O)[C@@H]1O (some centres unmarked) | 11 ± 0.0 | 210 ± 120 | 31 ± 0.7 | 55 ± 1.1 | 330 ± 0.2 | 620 ± 280 | 7.8 ± 0.2 | 25 ± 2.1 |  |  |  |  |  |  |  | 
Nc1ccc(O[C@@H]2O[C@H](CO)[C@H](O)[C@H](O)[C@H]2O)cc1 | 17 ± 0.7 | 570 ± 250 | 35 ± 5 | 49 ± 2.3 | 254 ± 10 | 1300 ± 260 | 11 ± 1.5 | 30 ± 3.3 |  |  |  |  |  |  |  | 
Nc1ccc(O[C@@H]2O[C@H](CO)[C@@H](O[C@@H]3O[C@H](CO)[C@H](O)[C@H](O)[C@H]3O)[C@H](O)[C@H]2O)cc1 | 7.4 ± 0.4 | 130 ± 80 | 17 ± 1.4 | 32 ± 0.5 | 190 ± 16 | 290 ± 120 | 3.7 ± 0.1 | 9.3 ± 0.4 |  |  |  |  |  |  |  | 
NC[C@H](O)[C@H](O)[C@H](O)[C@@H](O)CO | 4.8 ± 2 | 820 ± 500 | 47 ± 12 | 68 ± 7 | 290 ± 3 | 970 ± 400 | 13 ± 7 | 20 ± 0.3 |  |  |  |  |  |  |  | 
CNC[C@H](OC)[C@H](OC)[C@H](OC)[C@H](COC)OC | 18 ± 2 | 50 ± 50 | 0.8 ± 0.5 | 2.9 ± 1.4 | 17 ± 40 | 100 ± 70 | 0.4 ± 0.4 | 6.1 ± 4 | 2.9 ±1.4 | 50 ±50 | 0.8 ±0.5 | 18 ±2 | 6.1 ±4 | 0.4 ±0.4 | 100 ±70 | 17 ±40
N#CCC(N)=C(C#N)C#N | 11 ± 0.0 | 260 ± 70 | 34 ± 1.1 | 58 ± 3 | 370 ± 20 | 1900 ± 400 | 13 ± 0.3 | 28 ± 3.7 |  |  |  |  |  |  |  | 
CN(CCN(C)P(=O)(N(C)C)N(C)C)C(=O)CCCCCCCCCCS [Entry 1a] |  |  |  |  |  |  |  |  | 37 ±2 | 83 ±40 | 13 ±0.2 | 29 ±0.4 | 17 ±0.3 | 4.5 ±0.1 | 330 ±110 | 240 ±2
CC(=O)N1CCN(C(=O)CCCCCCCCCCCCCCCS)CC1 [Entry 2a] |  |  |  |  |  |  |  |  | 2.2 ±0.1 | 22 ±10 | 0.7 ±0.0 | 6.8 ±5 | 0.8 ±0.2 | 0.8 ±0.3 | 100 ±10 | 110 ±0
OCCOCCOCCOCCCCCCCCCCCS [Entry 3a, HOEG3(CH2)11SH, reference compound] |  |  |  |  |  |  |  |  | 0.2 |  | 0.2 |  | 0.2 | 0.2 |  | 
